Data as given in paper PMC9144902, “Metal(II) Complexes of the Fluoroquinolone Fleroxacin: Synthesis, Characterization and Biological Profile” (Pharmaceutics, 2022).

Experiments:
[1] = test system: Xanthomonas campestris ATCC 1395; test: Antimicrobial activity, MIC determination; assay type: cell-based; details: X. campestris; 24-h incubation, 28°C
Outline: (§1)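 Broth microdilution MIC in Mueller–Hinton broth, inoculum 0.5 McFarland, compounds added from DMSO working solutions at 2:98. After 24 h (37°C; X. campestris at 28°C), MIC is the lowest concentration inhibiting visible growth, by OD600 turbidity, in at least two of triplicate cultures.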

[2] = test system: Bacillus subtilis ATCC 6633; test: Antimicrobial activity, MIC determination; assay type: cell-based; details: B. subtilis; 24-h incubation, 37°C
Outline: as §1

[3] = test system: Staphylococcus aureus ATCC 6538; test: Antimicrobial activity, MIC determination; assay type: cell-based; details: S. aureus; 24-h incubation, 37°C
EB–DNA adduct (CT DNA) = test: Competitive study with EB (EB–DNA fluorescence quenching); assay type: binding, calf; details: for Ksv, Stern–Volmer constant: EB–DNA adduct; for ΔI/Io, percentage of EB–DNA fluorescence quenching: [EB] = 20 μM, [DNA] = 26 μM, λexc 540 nm, λem 592 nm; for EB–DNA relative fluorescence emission intensity, % of the initial (I/Io): λemission = 592 nm, final value (up to), Figure S14; for kq, EB–DNA quenching constant: τo = 23 ns

| Structure (SMILES) | MIC [1] [µg/mL] | MIC (values in parentheses) [1] [µM] | MIC [2] [µg/mL] | MIC (values in parentheses) [2] [µM] | MIC [3] [µg/mL] | MIC (values in parentheses) [3] [µM] | Ksv, Stern–Volmer constant (EB–DNA adduct (CT DNA)) | ΔI/Io, percentage of EB–DNA fluorescence quenching (EB–DNA adduct (CT DNA)) [%] | EB–DNA relative fluorescence emission intensity, % of the initial (I/Io) (EB–DNA adduct (CT DNA)) [%] | kq, EB–DNA quenching constant (EB–DNA adduct (CT DNA)) |
| --- | --- | --- | --- | --- | --- | --- | --- | --- | --- | --- |
| CN1CCN(c2c(F)cc3c(=O)c(C(=O)[O-])cn(CCF)c3c2F)CC1.CN1CCN(c2c(F)cc3c(=O)c(C(=O)[O-])cn(CCF)c3c2F)CC1.[Mn+2].c1ccc(Nc2ccccn2)nc1 [complex 10, [Mn(flrx)2(bipyam)]] | > 32 | > 33.2 | 16 | 16.6 | 16 | 16.6 | 5.92(±0.14) × 10^5 M^–1 | 81.1 | 18.9 | 2.57(±0.06) × 10^13 M^−1s^−1 |
| CN1CCN(c2c(F)cc3c(=O)c(C(=O)[O-])cn(CCF)c3c2F)CC1.CN1CCN(c2c(F)cc3c(=O)c(C(=O)[O-])cn(CCF)c3c2F)CC1.[Mn+2].c1cnc2c(c1)ccc1cccnc12 [complex 11, [Mn(flrx)2(phen)]] | 16 | 16.4 | 8 | 8.2 | 8 | 8.2 | 1.83(±0.03) × 10^5 M^–1 | 76.7 | 23.3 | 7.94(±0.14) × 10^12 M^−1s^−1 |
| CN1CCN(c2c(F)cc3c(=O)c(C(=O)[O-])cn(CCF)c3c2F)CC1.CN1CCN(c2c(F)cc3c(=O)c(C(=O)[O-])cn(CCF)c3c2F)CC1.[Co+2].c1ccc(-c2ccccn2)nc1 [complex 15, [Co(flrx)2(bipy)]] | 16 | 16.8 | 8 | 8.4 | 4 | 4.2 | 4.69(±0.09) × 10^5 M^–1 | 80.4 | 19.6 | 2.04(±0.04) × 10^13 M^−1s^−1 |
| CN1CCN(c2c(F)cc3c(=O)c(C(=O)[O-])cn(CCF)c3c2F)CC1.CN1CCN(c2c(F)cc3c(=O)c(C(=O)[O-])cn(CCF)c3c2F)CC1.[Co+2].c1ccc(Nc2ccccn2)nc1 [complex 16, [Co(flrx)2(bipyam)]] | 16 | 16.5 | 8 | 8.3 | 8 | 8.3 | 3.77(±0.12) × 10^5 M^–1 | 70.7 | 29.3 | 1.64(±0.05) × 10^13 M^−1s^−1 |
| CN1CCN(c2c(F)cc3c(=O)c(C(=O)[O-])cn(CCF)c3c2F)CC1.CN1CCN(c2c(F)cc3c(=O)c(C(=O)[O-])cn(CCF)c3c2F)CC1.[Co+2].c1cnc2c(c1)ccc1cccnc12 [complex 17, [Co(flrx)2(phen)]] | 16 | 16.0 | 8 | 8.0 | 8 | 8.0 | 3.56(±0.10) × 10^5 M^–1 | 69.8 | 30.2 | 1.55(±0.05) × 10^13 M^−1s^−1 |
| CN1CCN(c2c(F)cc3c(=O)c(C(=O)[O-])cn(CCF)c3c2F)CC1.CN1CCN(c2c(F)cc3c(=O)c(C(=O)[O-])cn(CCF)c3c2F)CC1.[Ni+2].c1ccc(Nc2ccccn2)nc1 [complex 18, [Ni(flrx)2(bipyam)]] | 32 | 33.0 | 8 | 8.3 | 8 | 8.3 | 3.02(±0.13) × 10^5 M^–1 | 59.3 | – | 1.31(±0.05) × 10^13 M^−1s^−1 |
| CN1CCN(c2c(F)cc3c(=O)c(C(=O)[O-])cn(CCF)c3c2F)CC1.CN1CCN(c2c(F)cc3c(=O)c(C(=O)[O-])cn(CCF)c3c2F)CC1.[Ni+2].c1cnc2c(c1)ccc1cccnc12 [complex 19, [Ni(flrx)2(phen)]] | 16 | 16.4 | 8 | 8.2 | 8 | 8.2 | 3.18(±0.14) × 10^5 M^–1 | 68.1 | 31.9 | 1.38(±0.05) × 10^13 M^−1s^−1 |
